Laboratory results taken from US20120095024A1, “TOLUIDINE SULFONAMIDES AND THEIR USE” (Elara Pharmaceuticals GmbH, priority 2008, published 2012).

System: MCF7 cells
Experiment: Cell proliferation assay (ATPlite), MCF-7
Type: cell-based, human
Conditions: inhibition of cell proliferation, 72 h
Procedure: MCF-7 human breast adenocarcinoma cells and HL-60 acute promyelocytic leukaemia cells were obtained from ATCC (LGC Promochem). HG-1 multiple myeloma cells were obtained from Dr. D. Hose (DKFZ Heidelberg). The CellSensor® HRE-bla HCT116 cell line (colorectal carcinoma) was obtained from Invitrogen.
Cells were grown under humidified 95% air, 5% CO2 at 37° C. in Dulbecco's modified Eagle's medium (DMEM: MCF-7) or RPMI 1640 medium (RPMI: HL-60, HG-1) supplemented with 10% fetal bovine serum (FBS), 100 U/ml penicillin and 100 μg/ml streptomycin, 2 mM L-glutamine, and 2 ng/ml IL-6 (for the HG-1 cell line only). The HCT116 cell line was grown under the same atmospheric conditions in McCoy's 5A medium supplemented with 10% FBS and penicillin/streptomycin as above, in addition to blasticidin as a selection marker at a final concentration of 5 μg/ml.
Cell proliferation experiments were carried out in 96-well tissue culture plates with seeding of 2000 cells/well (MCF-7) or 1000 cells/well (HL-60, HG-1) in 100 μl of the relevant medium. Cells were subsequently incubated under the conditions mentioned for 24 h prior to addition of compounds.
For the determination of compound EC50 values, 10 μl compounds at 11× concentrations in 5.5% DMSO were added to the wells at various concentrations yielding a final constant percentage of 0.5% DMSO at the desired 1× compound concentration. As a positive control, cells were treated with 5.5% DMSO. The cells were then incubated for a further 72 h prior to the measurement.
To determine the degree of inhibition of cell proliferation, cells were treated with ATPlite solution according to the manufacturer's instructions (PerkinElmer, ATPlite 1-step Luminescence ATP Detection Assay System) and luciferase readout measured on an Envision HTS multilabel plate reader (PerkinElmer) in luminescence mode according to established protocols. Raw data were imported into an ActivityBase database (IDBS, ID Business Solutions) and EC50 values calculated using the IDBS program ActivityBase XE. Table 2A and 2B show the IC50 values obtained in the above-outlined cell proliferation assay for exemplary compounds of the invention.

EC50 (Homo sapiens) [nM] | Compound | EC50 [nM]
< 500 | COc1ccc(S(=O)(=O)Nc2cc(-c3ccc(C#N)c(OC)c3)ccc2C)cc1 [Example 89, N-(4′-Cyano-3′-methoxy-4-methyl-biphenyl-3-yl)-4-methoxy-benzenesulfonamide] | –
< 500 | COc1ccc(S(=O)(=O)Nc2cc(-c3ccc(C#N)c(O)c3)ccc2C)cc1 [Example 90, N-(4′-Cyano-3′-hydroxy-4-methyl-biphenyl-3-yl)-4-methoxy-benzenesulfonamide] | –
500 to 1000 | Cc1ccc(-c2ccc(C#N)s2)cc1NS(=O)(=O)c1ccc(F)cc1 [Example 91, N-[5-(5-Cyano-thiophen-2-yl)-2-methyl-phenyl]-4-fluoro-benzenesulfonamide] | –
< 500 | COc1ccc(S(=O)(=O)Nc2cc(-c3ccc(C#N)s3)ccc2C)cc1F [Example 92, N-[5-(5-Cyano-thiophen-2-yl)-2-methyl-phenyl]-3-fluoro-4-methoxy-benzenesulfonamide] | –
< 500 | Cc1ccc(-c2ccc(C#N)s2)cc1NS(=O)(=O)c1ccc(N)cc1 [Example 93, 4-Amino-N-[5-(5-cyano-thiophen-2-yl)-2-methyl-phenyl]-benzenesulfonamide] | –
< 500 | Cc1ccc(S(=O)(=O)Nc2cc(C)cc(-c3csc(C)c3)c2)cc1 [Example 94, 4-Methyl-N-[3-methyl-5-(5-methyl-thiophen-3-yl)-phenyl]-benzenesulfonamide] | –
1000 to 10000 | Cc1ccc(-c2csc(C#N)c2)cc1NS(=O)(=O)c1ccc([N+](=O)[O-])cc1 [Example 96, N-(5-(5-cyanothiophen-3-yl)-2-methylphenyl)-4-nitrobenzenesulfonamide] | –
< 500 | Cc1ccc(-c2ccc(C#N)cc2)cc1NS(=O)(=O)c1ccc(Cl)cc1 [Example 97, 4-chloro-N-(4′-cyano-4-methylbiphenyl-3-yl)benzenesulfonamide] | –
500 to 1000 | Cc1ccc(-c2ccc(C#N)s2)cc1NS(=O)(=O)c1ccc(O)cc1 [Example 98, N-(5-(5-cyanothiophen-2-yl)-2-methylphenyl)-4-hydroxybenzenesulfonamide] | –
< 500 | COc1cc(-c2ccc(C)c(NS(=O)(=O)c3ccc(C)c(F)c3)c2)ccc1C#N [Example 99, N-(4′-cyano-3′-methoxy-4-methylbiphenyl-3-yl)-3-fluoro-4-methylbenzenesulfonamide] | –
1000 to 10000 | Cc1ccc(-c2ccc(C#N)cc2)cc1NS(=O)(=O)c1ccc(O)cc1 [Example 100, N-(4′-cyano-4-methylbiphenyl-3-yl)-4-hydroxybenzenesulfonamide] | –
1000 to 10000 | COc1cc(-c2ccc(C)c(NS(=O)(=O)c3ccc([N+](=O)[O-])cc3)c2)ccc1C#N [Example 101, N-(4′-cyano-3′-methoxy-4-methylbiphenyl-3-yl)-4-nitrobenzenesulfonamide] | –
< 500 | COc1cc(-c2ccc(C)c(NS(=O)(=O)c3ccc(N)cc3)c2)ccc1C#N [Example 102, 4-amino-N-(4′-cyano-3′-methoxy-4-methylbiphenyl-3-yl)benzenesulfonamide] | –
1000 to 10000 | Cc1ccc(-c2ccc(C#N)cc2)cc1NS(=O)(=O)c1cccc(F)c1 [Example 104, N-(4′-cyano-4-methylbiphenyl-3-yl)-3-fluorobenzenesulfonamide] | –
1000 to 10000 | Cc1ccc(-c2ccc(C#N)cc2)cc1NS(=O)(=O)c1ccc([N+](=O)[O-])c(F)c1 [Example 105, N-(4′-cyano-4-methylbiphenyl-3-yl)-3-fluoro-4-nitrobenzenesulfonamide] | –
1000 to 10000 | Cc1ccc(S(=O)(=O)Nc2cc(-c3ccc(N)cn3)ccc2C)cc1 [Example 106, N-(5-(5-aminopyridin-2-yl)-2-methylphenyl)-4-methylbenzenesulfonamide] | –
1000 to 10000 | COc1nccc(-c2ccc(C)c(NS(=O)(=O)c3ccc(C)cc3)c2)n1 [Example 107, N-(5-(2-methoxypyrimidin-4-yl)-2-methylphenyl)-4-methylbenzenesulfonamide] | –
– | COc1ccc(S(=O)(=O)Nc2cc(-c3ccc(C#N)s3)ccc2C)cc1OC [Example 108, N-(5-(5-cyanothiophen-2-yl)-2-methylphenyl)-3.4-dimethoxybenzenesulfonamide] | 500 to 1000
< 500 | COc1ccc(S(=O)(=O)Nc2cc(-c3ccc(C#N)s3)ccc2C)cc1C [Example 109, N-(5-(5-cyanothiophen-2-yl)-2-methylphenyl)-4-methoxy-3-methylbenzenesulfonamide] | –
< 500 | Cc1ccc(-c2ccc(C#N)cc2)cc1NS(=O)(=O)c1ccc(N)c(F)c1 [Example 110, 4-amino-N-(4′-cyano-4-methylbiphenyl-3-yl)-3-fluorobenzenesulfonamide] | –
< 500 | Cc1ccc(S(=O)(=O)Nc2cc(-c3ccc([N+](=O)[O-])c(C)n3)ccc2C)cc1 [Example 111, 4-methyl-N-(2-methyl-5-(6-methyl-5-nitropyridin-2-yl)phenyl)benzenesulfonamide] | –
500 to 1000 | COc1cc(S(=O)(=O)Nc2cc(-c3ccc(C#N)s3)ccc2C)ccc1F [Example 113, N-(5-(5-cyanothiophen-2-yl)-2-methylphenyl)-4-fluoro-3-methoxybenzenesulfonamide] | –
< 500 | Cc1ccc(-c2ccc(C#N)cc2)cc1NS(=O)(=O)c1ccc(N(C)C)cc1 [Example 115, N-(4′-cyano-4-methylbiphenyl-3-yl)-4-(dimethylamino)benzenesulfonamide] | –
500 to 1000 | Cc1ccc(-c2ccc(C#N)s2)cc1NS(=O)(=O)c1ccc(C#N)cc1 [Example 116, 4-cyano-N-(5-(5-cyanothiophen-2-yl)-2-methylphenyl)benzenesulfonamide] | –
– | N-[5-(5-Cyano-pyridin-3-yl)-2-methyl-phenyl]-4-methoxy-benzenesulfonamide [Example 74] | < 500
